# Measurements from patent US20050064507A1, “Determining kinase specificity” (priority 2003, published 2005).
# Square brackets hold non-standard residues; d marks the D form. Ends that are not written are not given here. pS = N[C@@H](COP(=O)(O)O)C(=O)O
# Legend:
# PKC-theta = biological target: T1, PKC-theta (Homo sapiens, UniProt Q04759); experiment: In vitro kinase assay: peptide phosphorylation by PKC-theta; format: biochemical; conditions: Table 8
# T1 construct: His-tag; made in house; host or cells: baculovirus-infected Sf9 cells
# Excerpt: A second strategy for validation of the PSSM derived from the methods described herein is to identify sequences represented in the human proteome that have low percentiles derived from the PSSM, to synthesize peptides that have those sequences, and test the efficiency of phosphorylation of those peptides by the kinase of interest. […] The results are shown for individual peptides (FIG. 11, panel A) or for groups of peptides aggregated by percentile prediction (FIG. 11, panel B). As with the testing described above with prospectively chosen peptides, the percentile scores are highly predictive of phosphorylation by the relevant kinase.
# An example of the purification procedure used for production of active kinase is as follows. A preparation of PKC-theta was prepared using a Gateway expression construct containing PKC-theta that was expressed in baculovirus, which were used to infect Sf9 cells. The cell pellet from a liter of baculovirus-infected Sf9 cells was resuspended in 20 volumes (60 ml) of extraction buffer (20 mM Na phosphate buffer pH 7.5, 500 mM NaCl, 5 mM pyrophosphate, 10% glycerol, 10 mM imidazole, 1 mM PMSF), sonicated twice for one minute (1 cm tip at 60% power and 50% duty cycle) and cell disruption was verified microscopically. The sample was adjusted to five mM MgCl2 and treated with one U benzonase/ml for an additional 20 minute on ice. The sample was clarified by centrifugation in a JA-20 rotor at 15K for 30 min at 4° C., filtered through a […] filter and applied at 0.5 ml/min to a one ml chelating sepharose column previously charged with nickel and equilibrated with extraction buffer. The column was washed with extraction buffer at one ml/min to baseline and eluted in a 20 ml gradient (20-500 mM imidazole in extraction buffer) into one ml fractions that were analyzed by SDS-PAGE. Fractions with the highest concentration of protein were pooled, were dialyzed twice against one liter of 20 mM Na PO4 pH 7.5, 50 mM NaCl buffer. The kinase pool was dialyzed twice against 20 mM HEPES pH 7.4, 100 mM NaCl, 2 mM EDTA, 5 mM DTT, 0.05% Triton-X-100. After dialysis, the sample was adjusted to 50% glycerol and quick-frozen in a dry ice/ethanol bath.
# (§1) The conditions of the kinase assay and the amount of active kinase used varied with the kinase and with the accuracy needed. For a typical experiment, 5-20 ng of kinase was used per well and each peptide pool was assayed in duplicate wells. Note that the absolute amount of kinase used was not usually a critical parameter, because the desired information related to specificity of the kinase not its absolute activity, and robustness of the assay depends on comparisons of the same amount of kinase on different peptides. The combination of kinase concentration and assay duration was modified to assure that the stoichiometry of peptide phosphorylation never exceeded 5%. The choice of kinase buffer depended on the kinase being analyzed. For studies of PKC, 100 mM HEPES, 0.05% Triton-X100, 1 mM CaCl2, 20 mM MgCl2, 0.2 mg/ml phosphatidyl serine (Avanti Polar Lipids), PMA 100 ng/ml was typically used. The lipid stock was prepared by transferring 3 mg phosphatidyl serine into iced mixture of 450 μl water plus 50 μl of 10% Triton-X100, sonicating 10 times on ice for 1 sec each.
# The kinase reaction mixture was assembled by sequential addition to a tube held on ice of: 5 μl peptide (100 μM for final concentration of 10 μM), 15 μl of kinase (typically 5 ng/well, in appropriate kinase buffer), 30 μl of ATP (1 uCi/well of ^32P-gamma ATP in a stock of 167 μM cold ATP in the kinase buffer; for final concentration for 100 μM ATP). The mixture was rapidly warmed to desired reaction temperature (30° C. for PKC) and incubated for the desired duration (usually 10 minutes). The kinase assay was terminated by transfer to 4° C. water batch, and rapid addition of an equal volume (50 μl) of stop solution [0.1M ATP+0.1M EDTA in water, pH 8]. […]
# pPKC Ab = pPKC Ab binding to peptides phosphorylated in vitro by PKC-theta; conditions: for pPKC Ab binding to peptide: before/after phosphorylation by PKC-theta
# Method: Synthetic peptides chosen from those shown in Table 4 were subjected to phosphorylation by PKC-theta, Assay conditions were similar to those described herein, except that the phosphorylation reaction was for 30 minutes at 30° C. and then overnight at 4° C. The reaction mixture was applied to HB avidin-coated plates, the plates washed, and then pPKC Ab binding assayed.
# PKC-delta = biological target: T2, PKC-delta (Homo sapiens, UniProt Q05655); experiment: In vitro kinase assay: peptide phosphorylation by PKC-delta; format: biochemical; conditions: peptide concentration of 10 nM; percentage of phosphorylation of the best validating peptide substrate
# T2 construct: purchased Calbiochem
# Excerpt: One approach to validating a substrate identification method can involve, for example, comparison of substrate sites predicted by the method with in vitro phosphorylation results obtained using the selected kinase and peptides of known sequences. Such a systematic validation has been performed for the methods described herein. For example, a panel of seventy five peptides was synthesized, the phosphorylation observed for each peptide was experimentally measured, the amount of phosphorylation was quantified, the phosphorylation results for each peptide were normalized to the phosphorylation observed with the best substrate tested and these amounts were compared with predictions made according to the invention and according to the procedures provided by others. These peptides are referred to herein as proteomic peptides because their sequences are chosen from proteins in the human proteome; unlike the test sets employed herein, these peptides include no degenerate positions
# Table 2 compares the present predictions with actual measurements of phosphorylation on validating peptides. The method of synthesis of the validating peptides was as described elsewhere in the application, and each included an N-terminal linker sequence of biotinylated-Lys-dansylated-Lys-Pro-Pro-Gly (SEQ ID NO:231). The length of the remaining “core” of the validating peptides ranged from 12-21 residues with one to five S/T residues. In vitro phosphorylation of these validating peptides was measured in the manner described herein. […] In vitro phosphorylation results for the validating peptides were expressed as normalized values, namely as a percentage of phosphorylation of the best validating peptide substrate in the group.
# as §1
# The kinase reaction mixture was assembled by sequential addition to a tube held on ice of: 5 μl peptide (100 μM for final concentration of 10 μM), 15 μl of kinase (typically 5 ng/well, in appropriate kinase buffer), 30 μl of ATP (1 uCi/well of ^32P-gamma ATP in a stock of 167 μM cold ATP in the kinase buffer; for final concentration for 100 μM ATP). The mixture was rapidly warmed to desired reaction temperature (30° C. for PKC) and incubated for the desired duration (usually 10 minutes). The kinase assay was terminated by transfer to 4° C. water batch, and rapid addition of an equal volume (50 μl) of stop solution [0.1M ATP+0.1M EDTA in water, pH 8].
# The peptides were then captured from the reaction mixture by transfer to a Reacti-Bind Streptavidin High Binding Capacity Coated Plates (HBC) (Pierce Biotechnology) as follows. The HBC plates were pre-rinsed three times with PBS/Tween PBS/Tween20 0.05% (PBS/Tween). […]
# pPKC antibody = conditions: cited from earlier work
# T1 sequence (Q04759 whole entry): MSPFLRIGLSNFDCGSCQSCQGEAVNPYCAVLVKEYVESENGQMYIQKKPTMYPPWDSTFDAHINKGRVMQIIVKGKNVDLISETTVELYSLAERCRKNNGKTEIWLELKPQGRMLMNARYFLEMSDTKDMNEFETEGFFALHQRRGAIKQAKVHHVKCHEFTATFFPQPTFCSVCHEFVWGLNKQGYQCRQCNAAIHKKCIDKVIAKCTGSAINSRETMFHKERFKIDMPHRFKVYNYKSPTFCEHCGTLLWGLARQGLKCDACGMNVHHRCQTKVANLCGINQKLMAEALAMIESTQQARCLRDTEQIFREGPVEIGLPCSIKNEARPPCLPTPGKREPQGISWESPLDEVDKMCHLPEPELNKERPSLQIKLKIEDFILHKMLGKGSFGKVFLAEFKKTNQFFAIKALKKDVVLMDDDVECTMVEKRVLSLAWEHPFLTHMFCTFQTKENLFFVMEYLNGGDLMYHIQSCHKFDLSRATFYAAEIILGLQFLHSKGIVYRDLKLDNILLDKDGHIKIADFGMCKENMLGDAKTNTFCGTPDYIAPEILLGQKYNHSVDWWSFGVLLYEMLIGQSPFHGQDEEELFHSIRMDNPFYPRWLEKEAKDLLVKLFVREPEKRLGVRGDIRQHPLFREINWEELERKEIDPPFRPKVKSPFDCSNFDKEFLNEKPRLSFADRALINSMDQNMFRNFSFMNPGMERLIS
# T2 sequence (Q05655 whole entry): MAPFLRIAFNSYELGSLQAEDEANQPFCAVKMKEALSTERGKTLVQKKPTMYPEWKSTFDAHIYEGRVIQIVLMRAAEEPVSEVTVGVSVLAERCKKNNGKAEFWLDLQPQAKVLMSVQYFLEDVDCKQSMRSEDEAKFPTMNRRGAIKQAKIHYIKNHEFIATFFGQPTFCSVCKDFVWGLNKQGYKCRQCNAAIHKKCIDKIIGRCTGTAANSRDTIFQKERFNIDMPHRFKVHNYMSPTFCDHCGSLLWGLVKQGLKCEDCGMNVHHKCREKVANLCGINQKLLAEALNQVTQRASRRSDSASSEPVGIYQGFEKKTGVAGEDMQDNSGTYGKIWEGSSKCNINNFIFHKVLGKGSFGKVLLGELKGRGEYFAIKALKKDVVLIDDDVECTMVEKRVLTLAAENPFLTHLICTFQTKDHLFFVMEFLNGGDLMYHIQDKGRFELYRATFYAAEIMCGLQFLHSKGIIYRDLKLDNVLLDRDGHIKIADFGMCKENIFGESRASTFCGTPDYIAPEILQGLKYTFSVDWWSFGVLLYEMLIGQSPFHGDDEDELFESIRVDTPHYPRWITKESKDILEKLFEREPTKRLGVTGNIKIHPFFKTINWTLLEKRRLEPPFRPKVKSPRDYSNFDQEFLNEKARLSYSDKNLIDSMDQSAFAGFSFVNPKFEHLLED
substance,measurement,setting,value
75 (EEAEHKATKARLADK) [compound 75],Peptide phosphorylation by PKC-theta,PKC-theta,0
same,pPKC Ab Signal on peptide without exposure to PKC-theta,pPKC Ab,0.02
same,pPKC Ab Signal on peptide after exposure to PKC-theta phosphorylation,pPKC Ab; 30 minutes at 30° C. then overnight at 4° C.,0.02
same,pPKC Ab Signal amount dependent on PKC phosphorylation,pPKC Ab; difference after minus without exposure,0.00
same,Measured in vitro phosphorylation by PKC-delta,PKC-delta,0%
229 (WKN[pS]IRH) [compound 229],binding of pPKC antibody (manufacturer Cell Signaling Technology),pPKC antibody,binds
230 (RRP[pS]YRK) [compound 230],binding of pPKC antibody (manufacturer Cell Signaling Technology),pPKC antibody,binds
HVRRRRGTFKRSKLRARD [SEQ ID NO 1],pPKC Ab binding to peptide,pPKC Ab,after phosphorylation but not before
LRRRSLRRSNSISKSPGP [SEQ ID NO 121],pPKC Ab binding to peptide,pPKC Ab,after phosphorylation but not before
